Our source for the inhibition values is US20260184663A1, “INDENE COMPOUNDS, PHARMACEUTICAL COMPOSITIONS THEREOF, AND THEIR THERAPEUTIC APPLICATIONS” (NucMito Pharmaceuticals co. Ltd., priority 2022, published 2026).

Molecules are shown by their SMILES.

Assay type in all cases: cell-based
The subject of assay [1] is A549 (lung adenocarcinoma). Description: Antiproliferative activity (CCK-8 cell viability), A549. The following applies: Homo sapiens, 72 h, read-out: Antiproliferative activity in cancerous cells, A549 (inhibition of cell growth); for inhibition at 3.3 µM: Compound concentration: 3.3 μM; for inhibition at 10 µM: Compound concentration: 10 μM; for inhibition at 30 µM: Compound concentration: 30 μM. In short, it runs like this:
(§1)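 Growth inhibition graded in bands from percent viability against DMSO vehicle, read as CCK-8 absorbance at 450 nm. Compound tested at 3.3, 10 or 30 μM for 72 h, 37 °C; media contained 10% FBS: DMEM for HepG2/SW480, MEM for HeLa, F-12K for A549.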

Assay [2] deals with A431 (epidermoid carcinoma). Put plainly: Antiproliferative activity (CCK-8 cell viability), A431. As to conditions: Homo sapiens, 72 h, read-out: Antiproliferative activity in cancerous cells, A431 (inhibition of cell growth); for inhibition at 3.3 µM: A-431, Compound concentration: 3.3 μM; for inhibition at 10 µM: A-431, Compound concentration: 10 μM; for inhibition at 30 µM: A-431, Compound concentration: 30 μM. In short, it runs like this: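 This growth inhibition assay used A431 cells maintained in Dulbecco's modified Eagle's medium plus 10% fetal bovine serum. Cells were seeded in 96-well plates, treated with compound for 72 h at 37° C., and then given 10 μL CCK-8 solution. After a further 4 h, absorbance was read at 450 nm.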

The subject of assay [3] is B16F10 (malignant melanoma). Put plainly: Antiproliferative activity (CCK-8 cell viability), B16F10. As to conditions: Mus musculus, 72 h, read-out: Antiproliferative activity in cancerous cells, B16F10 (inhibition of cell growth); for inhibition at 3.3 µM: B16-F10, Compound concentration: 3.3 μM; for inhibition at 10 µM: B16-F10, Compound concentration: 10 μM; for inhibition at 30 µM: B16-F10, Compound concentration: 30 μM. In outline:
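Cell growth inhibition was measured in B16F10 malignant melanoma cells with a Cell Counting Kit-8 viability assay. Cells were maintained in DMEM plus 10% fetal bovine serum, seeded at 2,000-5,000 cells/well in 96-well plates, and treated for 72 h at 37° C. Viability was expressed relative to DMSO-treated vehicle control wells.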

The test system of a further assay is HepG2 (liver cancer). Description: Antiproliferative activity (CCK-8 cell viability), HepG2. The following applies: Homo sapiens, 72 h, read-out: Antiproliferative activity in cancerous cells, HepG2 (inhibition of cell growth); for inhibition at 3.3 µM: Compound concentration: 3.3 μM; for inhibition at 10 µM: Compound concentration: 10 μM; for inhibition at 30 µM: Compound concentration: 30 μM. In outline: as §1

For another assay, the system named is SW480 (colon cancer). Put plainly: Antiproliferative activity (CCK-8 cell viability), SW480. The following applies: Homo sapiens, 72 h, read-out: Antiproliferative activity in cancerous cells, SW480 (inhibition of cell growth); for inhibition at 3.3 µM: Compound concentration: 3.3 μM; for inhibition at 10 µM: Compound concentration: 10 μM; for inhibition at 30 µM: Compound concentration: 30 μM. In short, it runs like this: as §1

For assay [4], the system named is MDA-MB-231 (breast cancer). Put plainly: Antiproliferative activity (CCK-8 cell viability), MDA-MB-231. The following applies: Homo sapiens, 72 h, read-out: Antiproliferative activity in cancerous cells, MDA-MB-231 (inhibition of cell growth); for inhibition at 3.3 µM: Compound concentration: 3.3 μM; for inhibition at 10 µM: Compound concentration: 10 μM; for inhibition at 30 µM: Compound concentration: 30 μM. In short, it runs like this: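 Growth inhibition of human MDA-MB-231 breast cancer cells was assessed with a Cell Counting Kit-8. Cells cultured in DMEM plus 10% FBS were seeded at 2,000-5,000 cells/well, treated after attachment, and kept 72 h at 37° C. CCK-8 solution (10 μL) was added for 4 h, and absorbance at 450 nm was compared with DMSO-treated controls.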

Another assay deals with HeLa (cervical cancer). Description: Antiproliferative activity (CCK-8 cell viability), HeLa. As to conditions: Homo sapiens, 72 h, read-out: Antiproliferative activity in cancerous cells, HELA (inhibition of cell growth); for inhibition at 3.3 µM: Compound concentration: 3.3 μM; for inhibition at 10 µM: Compound concentration: 10 μM; for inhibition at 30 µM: Compound concentration: 30 μM. In outline: as §1

As to `CC1=C(CC(=O)O)c2cc(F)ccc2/C1=C\c1ccc(CO)cc1` [D11, (Z)-2-(5-Fluoro-1-(4-(hydroxymethyl)benzylidene)-2-methyl-1H-inden-3-yl)acetic acid], the inhibition (as a rule, the drop in the measured response relative to a control, in per cent) at 3.3 µM is under 30% in assay [1]; under 30% in assay [2]; under 30% in assay [3]; under 30% in the assay with HepG2 (liver cancer); under 30% with SW480 (colon cancer); at least 50% in assay [4]. Moreover, the inhibition at 3.3 µM in the assay with HeLa (cervical cancer) was under 30%. For the same compound, the inhibition at 10 µM in assay [1] is at least 50%; in assay [2], at least 50%; in assay [3], under 30%; in the assay with HepG2 (liver cancer), under 30%; in the assay with SW480 (colon cancer) it was at least 50%; in assay [4], at least 50%. Besides, in the assay with HeLa (cervical cancer), the inhibition at 10 µM was under 30%. In addition, the inhibition at 30 µM in assay [1] is at least 50%; in assay [2] it was at least 50%; in assay [3] it was under 30%; with HepG2 (liver cancer), under 30%; with SW480 (colon cancer), at least 50%; in assay [4], at least 50%. Further, the inhibition at 30 µM with HeLa (cervical cancer) is at least 50%.

As to `COc1ccc(/C=C2/C(C)=C(CC(=O)O)c3cc(F)ccc32)cc1Cl` [D12, (Z)-2-(1-(3-Chloro-4-methoxybenzylidene)-5-fluoro-2-methyl-1H-inden-3-yl)acetic acid], the inhibition at 3.3 µM in assay [1] was under 30%; in assay [2], at least 50%; in assay [3] it was under 30%; in the assay on HepG2 (liver cancer), under 30%; in the assay with SW480 (colon cancer), under 30%; in assay [4] it was under 30%. In the assay with HeLa (cervical cancer), the inhibition at 3.3 µM was under 30%. Besides, the inhibition at 10 µM in assay [1] was under 30%; in assay [2], at least 50%; in assay [3], 30 to 50%; with HepG2 (liver cancer) it was 30 to 50%; in the assay on SW480 (colon cancer), under 30%; in assay [4], 30 to 50%. For the same compound, the inhibition at 10 µM in the assay with HeLa (cervical cancer) fell in the range of 30 to 50%. The inhibition at 30 µM (in assay [1]; in assay [2]; in assay [3]; in the assay on HepG2 (liver cancer); with SW480 (colon cancer); in assay [4]) was at least 50% in each case. The inhibition at 30 µM in the assay on HeLa (cervical cancer) was at least 50%.

Turning to `CC1=C(CC(=O)O)c2cc(F)ccc2/C1=C\c1ccc(-c2ccc(Cl)cc2)cc1` [D13, (Z)-2-(1-((4′-Chloro-[1,1′-biphenyl]-4-yl)methylene)-5-fluoro-2-methyl-1H-inden-3-yl)acetic acid], the inhibition at 3.3 µM in assay [1] was under 30%; in assay [2], under 30%; in assay [3] it was at least 50%; in the assay with HepG2 (liver cancer), under 30%; in the assay on SW480 (colon cancer) it was 30 to 50%; in assay [4] it was under 30%. For the same compound, in the assay with HeLa (cervical cancer), the inhibition at 3.3 µM is under 30%. Besides, the inhibition at 10 µM is under 30% in assay [1]; 30 to 50% in assay [2]; at least 50% in assay [3]; under 30% in the assay on HepG2 (liver cancer); 30 to 50% in the assay on SW480 (colon cancer); 30 to 50% in assay [4]. Besides, in the assay on HeLa (cervical cancer), the inhibition at 10 µM is at least 50%. The inhibition at 30 µM in assay [1] is 30 to 50%; in assay [2], 30 to 50%; in assay [3], at least 50%; with HepG2 (liver cancer), under 30%; in the assay on SW480 (colon cancer) it was 30 to 50%; in assay [4], at least 50%. The inhibition at 30 µM in the assay on HeLa (cervical cancer) was at least 50%.

Regarding `CC1=C(CC(=O)O)c2cccc(F)c2/C1=C/c1cccc(COc2ccccc2)c1` [E8, (E)-2-(7-Fluoro-2-methyl-1-(3-(phenoxymethyl)benzylidene)-1H-inden-3-yl)-acetic acid], the inhibition at 3.3 µM in assay [1] is under 30%; in assay [2] it was at least 50%; in assay [3], under 30%; with HepG2 (liver cancer) it was 30 to 50%; in the assay on SW480 (colon cancer), 30 to 50%; in assay [4], at least 50%. Moreover, the inhibition at 3.3 µM in the assay with HeLa (cervical cancer) was 30 to 50%. Also, the inhibition at 10 µM in assay [1] was at least 50%; in assay [2], at least 50%; in assay [3], 30 to 50%; with HepG2 (liver cancer), at least 50%; with SW480 (colon cancer) it was at least 50%; in assay [4], at least 50%. In addition, the inhibition at 10 µM in the assay on HeLa (cervical cancer) is at least 50%. In addition, the inhibition at 30 µM (in assay [1]; in assay [2]; in assay [3]; in the assay on HepG2 (liver cancer); in the assay on SW480 (colon cancer); in assay [4]) was at least 50% throughout. In addition, in the assay on HeLa (cervical cancer), the inhibition at 30 µM is at least 50%.

For the compound `CC1=C(CC(=O)O)c2cc(F)ccc2/C1=C/c1cccc(COc2ccc(F)c(F)c2)c1` [E9, 2-[(1E)-1-({3-[(3,4-Difluorophenoxy)methyl]phenyl}methylidene)-5-fluoro-2-methyl-1H-inden-3-yl]acetic acid], the inhibition at 3.3 µM in assay [1] was 30 to 50%; in assay [2] it was under 30%; in assay [3] it was 30 to 50%; with HepG2 (liver cancer) it was 30 to 50%; in the assay with SW480 (colon cancer), at least 50%; in assay [4], at least 50%. Further, the inhibition at 3.3 µM in the assay on HeLa (cervical cancer) was under 30%. The inhibition at 10 µM in assay [1] is 30 to 50%; in assay [2] it was at least 50%; in assay [3], at least 50%; with HepG2 (liver cancer) it was at least 50%; in the assay on SW480 (colon cancer), at least 50%; in assay [4], at least 50%. For the same compound, the inhibition at 10 µM in the assay with HeLa (cervical cancer) was in the range of 30 to 50%. In addition, the inhibition at 30 µM (in assay [1]; in assay [2]; in assay [3]; with HepG2 (liver cancer); with SW480 (colon cancer); in assay [4]) was at least 50% throughout. The inhibition at 30 µM with HeLa (cervical cancer) is at least 50%.
